# Experimental data from US9556159B2, “Renin inhibitor” (MITSUBISHI TANABE PHARMA CORPORATION, priority 2012, dated 2017).
# Like-named read-outs stand apart in the source and are kept apart here.
# Target: T1, Recombinant human renin (Homo sapiens, UniProt P00797)
# T1 sequence (P00797 67-406): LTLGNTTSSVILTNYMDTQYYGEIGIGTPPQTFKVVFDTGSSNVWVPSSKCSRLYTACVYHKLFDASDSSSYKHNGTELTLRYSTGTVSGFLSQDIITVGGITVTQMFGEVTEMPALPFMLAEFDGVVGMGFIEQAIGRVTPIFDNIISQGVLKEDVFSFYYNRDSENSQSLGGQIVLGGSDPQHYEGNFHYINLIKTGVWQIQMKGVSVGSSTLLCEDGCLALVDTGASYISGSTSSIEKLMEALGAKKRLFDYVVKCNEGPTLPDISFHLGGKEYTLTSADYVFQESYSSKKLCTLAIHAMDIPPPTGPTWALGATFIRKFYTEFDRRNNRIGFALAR
# Test: Inhibitory activity against human renin (fluorogenic peptide substrate)
# Type: biochemical
# Details: 37° C. for 1 hour
# [1] = 50% inhibitory concentration (IC50) against human renin
IC50 [1],IC50 (read-out: IC50),SMILES
1.5 nM,,CCc1c([C@@H](C)N(C(=O)[C@H]2CNCCO2)C2CC2)nn(CCCNC(=O)OC)c1-c1ccccn1 [Example 217]
0.4 nM,,COC(=O)NCCCc1cc([C@@H](C)N(C(=O)[C@H]2CNCCO2)C2CC2)sc1-c1ccccc1C(=O)NS(=O)(=O)c1ccccc1 [Example 288]
,4 nM,COC(=O)NCCCc1cccc([C@@H](C)N(C(=O)[C@H]2CNCCO2)C2CC2)c1 [Example 61]
0.5 nM,,COC(=O)NCCCc1cc([C@@H](C)N(C(=O)[C@H]2CNCCO2)C2CC2)sc1-c1ccccc1-c1n[nH]c(=O)o1 [Example 276]
2 nM,,COC(=O)NCCCc1nc([C@@H](C)N(C(=O)[C@H]2CNCCO2)C2CC2)sc1-c1cnn(C)c1 [Example 413]
0.5 nM,,COC(=O)NCCCc1cc([C@@H](C)N(C(=O)[C@H]2CNCCO2)C2CC2)sc1-c1ccccc1-c1nnn[nH]1 [Example 270]
1.7 nM,,COC(=O)NCCCc1cc([C@@H](C)N(C(=O)[C@H]2CN[C@@H](C)CO2)C2CC2)nn1-c1cccc(F)c1 [Example 370]
7 nM,,COC(=O)NCCCn1nc([C@@H](C)N(C(=O)[C@H]2CNCC(C)(C)O2)C2CC2)c2ccc(C)nc21 [Example 166]
0.8 nM,,COCCCCc1cc([C@@H](C)N(C(=O)[C@H]2CNCCO2)C2CC2)nc2c1CCCC2 [Example 123]
0.5 nM,,COC(=O)NCCCc1cc([C@@H](C)N(C(=O)[C@H]2CNCCO2)C2CC2)nc2ccc(OC)cc12 [Example 141]
,0.9 nM,COC(=O)NCCCn1nc([C@@H](C)N(C(=O)[C@H]2CNCCO2)C2CC2)c2ccc(C3CC3)cc21 [Example 59]
1.7 nM,,COC(=O)NCCCc1cc(C(C)N(C(=O)[C@H]2CNCCO2)C2CC2)sc1-c1cccnc1N (stereo partly drawn) [Example 422]
4.2 nM,,COCCNc1ncc([C@@H](C)N(C(=O)[C@H]2CNCCO2)C2CC2)nc1CCCNC(=O)OC [Example 444]
,0.8 nM,COCc1ccc([C@@H](C)N(C(=O)[C@H]2CNCCO2)C2CC2)cc1CCCNC(=O)OC [Example 96]
0.2 nM,,COC(=O)NCCCc1cc([C@@H](C)N(C(=O)[C@H]2CNCCO2)C2CC2)sc1-c1ccccn1 [Example 227]
0.6 nM,,COC[C@@H]1CNC[C@H](C(=O)N(C2CC2)[C@H](C)c2cn(CCCNC(=O)OC)c(-c3ccc(F)cc3)n2)O1 [Example 277]
0.5 nM,,COC(=O)NCCCc1cc([C@@H](C)N(C(=O)[C@H]2CNCCO2)C2CC2)sc1-c1cccc(F)c1O [Example 274]
4.1 nM,,COC[C@@H]1CNC[C@H](C(=O)N(C2CC2)[C@H](C)c2cc(OC)c3ccccc3n2)O1 [Example 201]
0.8 nM,,COC(=O)NCCCc1cc([C@@H](C)N(C(=O)[C@H]2CNCCO2)C2CC2)cc2ncccc12 [Example 149]
6.7 nM,,COC(=O)NCCCc1cc(C(C)N(C(=O)[C@H]2CNCCO2)C2CC2)sc1-c1cnc2[nH]ccc2c1 (stereo partly drawn) [Example 410]
3.1 nM,,COC(=O)NCCCc1csc([C@@H](C)N(C(=O)[C@H]2CNCCO2)C2CC2)c1 [Example 224]
,0.9 nM,COCCCCc1cc([C@@H](C)N(C(=O)[C@H]2CNCCO2)C2CC2)cc(C(C)C)n1 [Example 110]
0.5 nM,,COC(=O)NCCCc1cc([C@@H](C)N(C(=O)[C@H]2CNCCO2)C2CC2)sc1-c1ccccc1F [Example 229]
8.9 nM,,CCc1cc([C@@H](C)N(C(=O)[C@H]2CNCCO2)C2CC2)nc2c1cnn2CCCOC [Example 379]
1.8 nM,,CCc1nc([C@@H](C)N(C(=O)[C@H]2CNCCO2)C2CC2)cc2c1ncn2CCCOC [Example 388]
,1.7 nM,COC(=O)NCCCn1cc([C@@H](C)N(C(=O)[C@H]2CNCCO2)C2CC2)c2nccnc21 [Example 84]

IC50 [1],IC50 (read-out: IC50),SMILES
,2.4 nM,COCCCOc1cc([C@@H](C)N(C(=O)[C@H]2CNCCO2)C2CC2)cc2c1OCCC2 [Example 19]
1.1 nM,,CCc1cn(CCCOC)c2cc([C@@H](C)N(C(=O)[C@H]3CNCCO3)C3CC3)nc(CC)c12 [Example 152]
0.6 nM,,COC[C@@H]1CNC[C@H](C(=O)N(C2CC2)[C@H](C)c2cc(CCCNC(=O)OC)n(C(C)C)n2)O1 [Example 301]
1.5 nM,,COC(=O)NCCCc1sc([C@@H](C)N(C(=O)[C@H]2CNCCO2)C2CC2)nc1-c1ccccc1 [Example 206]
0.2 nM,,COC(=O)NCCCn1nc([C@@H](C)N(C(=O)[C@H]2CNCCO2)C2CC2)cc1-c1ccccc1 [Example 159]
5.1 nM,,Cc1nc([C@@H](C)N(C(=O)[C@H]2CNCCO2)C2CC2)cc2c1ccn2Cc1ccccc1 [Example 148]
7.1 nM,,COc1ccc(Cn2cc([C@@H](C)N(C(=O)[C@H]3CNCCO3)C3CC3)nc2-c2ccccc2)cc1 [Example 204]
3.5 nM,,COC[C@@H]1CNC[C@H](C(=O)N(C2CC2)[C@H](C)c2nc(CCCNC(=O)OC)c(-c3cccc(Cl)c3)s2)O1 [Example 378]
6.3 nM,,COCCCCn1cc([C@@H](C)N(C(=O)[C@H]2CNCCO2)C2CC2)c2ccnc(C)c21 [Example 134]
,0.7 nM,CCOc1ccc([C@@H](C)N(C(=O)[C@H]2CNCCO2)C2CC2)cc1CCCNC(=O)OC [Example 106]
,8.9 nM,COc1ccc([C@@H](C)N(C(=O)[C@H]2CNCCO2)C2CC2)cc1CCCNC(=O)C(F)(F)F [Example 67]
0.5 nM,,COC(=O)NCCCn1cc([C@@H](C)N(C(=O)[C@H]2CNC[C@@H](C)O2)C2CC2)nc1-c1ccccc1 [Example 230]
1.8 nM,,COCCCCn1cc([C@@H](C)N(C(=O)[C@H]2CNCCO2)C2CC2)c2nccc(COC)c21 [Example 115]
0.4 nM,,COC(=O)NCCCn1nc([C@@H](C)N(C(=O)[C@H]2CN[C@@H](CCF)CO2)C2CC2)c2ccc(C)nc21 [Example 332]
1.7 nM,,COC[C@@H]1CNC[C@H](C(=O)N(C2CC2)[C@H](C)c2nc(CCCNC(=O)OC)n(-c3cccc(Cl)c3)n2)O1 [Example 381]
0.7 nM,,CCOC[C@@H]1CNC[C@H](C(=O)N(C2CC2)[C@@H](C)c2nn(CCCNC(=O)OC)c3nc(C)ccc23)O1 [Example 312]
,7.2 nM,COCc1ccc([C@@H](C)N(C(=O)[C@H]2CNCCO2)C2CC2)cc1OCCNC(=O)OC [Example 95]
7.7 nM,,COC(=O)NCCCn1nc([C@@H](C)N(C(=O)[C@H]2CNC[C@@H](C(C)(C)O)O2)C2CC2)c2ccc(C)nc21 [Example 293]
,0.9 nM,CCc1ccnc2c([C@@H](C)N(C(=O)[C@H]3CNCCO3)C3CC3)cn(CCCCOC)c12 [Example 79]
1.4 nM,,COC(=O)NCCCc1cc([C@H](C)N(C(=O)[C@H]2CNC[C@@H](CC#N)O2)C2CC2)cc(OC)n1 [Example 316]
1.6 nM,,COC[C@H]1CO[C@@H](C(=O)N(C2CC2)[C@H](C)c2cc(CCCNC(=O)OC)n(C3CCOCC3)n2)CN1 [Example 302]
4.3 nM,,COCCCn1ncc2c(C)cc([C@@H](C)N(C(=O)[C@H]3CNC[C@@H](COC)O3)C3CC3)nc21 [Example 385]
,3.4 nM,COCCCc1nn(C)c2ccc([C@@H](C)N(C(=O)[C@H]3CNCCO3)C3CC3)cc12 [Example 26]
2.7 nM,,COC(=O)NCCCc1sc([C@H](C)N(C(=O)[C@H]2CNCCO2)C2CC2)cc1Br [Example 437]
2.7 nM,,C=C(c1sc([C@@H](C)N(C(=O)[C@H]2CNCCO2)C2CC2)cc1CCCNC(=O)OC)C(F)(F)F [Example 401]
